Legend:
Format in all cases: in vivo
Alopecurus myosuroides [1] = assay: Pre-emergence herbicidal activity against ALOMY; details: dosage 80 g/ha, scored visually after about 3 weeks vs untreated controls (100% = plants have died, 0% = like control plants); for pest or weed control at 80 g/ha: Alopecurus myosuroides, 504 h
Source text: (§1) 1. Pre-Emergence Herbicidal Action and Crop Plant Compatibility Seeds of monocotyledonous and dicotyledonous weed plants and crop plants are placed in plastic or wood fiber pots and covered with soil. The compounds of the invention, formulated in the form of wettable powders (WP) or as emulsion concentrates (EC), are then applied onto the surface of the covering soil as aqueous suspension or emulsion with addition of 0.5% additive at a water application rate of 600 l/ha (converted). After the treatment, the pots are placed in a greenhouse and kept under good growth conditions for the trial plants. After about 3 weeks, the effect of the preparations is scored visually in comparison with untreated controls as percentages. For example, 100% activity=the plants have died, 0% activity=like control plants. ABUTH: Abutilon theophrasti ALOMY: Alopecurus myosuroides

Setaria viridis = assay: Pre-emergence herbicidal activity against SETVI; details: dosage 80 g/ha; for pest or weed control at 80 g/ha: Setaria viridis, 504 h
Source text: as §1, with “POLCO: Polygonum convolvulus SETVI: Setaria viridis” for “ABUTH: Abutilon theophrasti ALOMY: Alopecurus myosuroides”

Polygonum convolvulus = assay: Pre-emergence herbicidal activity against POLCO; details: dosage 80 g/ha; for pest or weed control at 80 g/ha: Fallopia convolvulus, 504 h
Source text: as §1, with “POLCO: Polygonum convolvulus SETVI: Setaria viridis” for “ABUTH: Abutilon theophrasti ALOMY: Alopecurus myosuroides”

Alopecurus myosuroides [2] = assay: Post-emergence herbicidal activity against ALOMY; details: dosage 320 g/ha, rated about 3 weeks after treatment; for pest or weed control at 320 g/ha: Alopecurus myosuroides, 504 h
How it was run: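 Greenhouse-grown plants treated at one-leaf stage, 2 to 3 weeks after sowing, with WP or EC formulations sprayed as aqueous suspension/emulsion plus 0.5% additive at 600 l/ha. Activity rated visually about 3 weeks later versus untreated controls (100% = plants dead, 0% = like control).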

Avena fatua [3] = assay: Post-emergence herbicidal activity against AVEFA; details: dosage 320 g/ha, rated about 3 weeks after treatment; for pest or weed control at 320 g/ha: Avena fatua, 504 h
How it was run: (§2)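 Greenhouse pots of sandy loam; plants sprayed at one-leaf stage, 2 to 3 weeks after sowing, with WP or EC formulations in water plus 0.5% additive at 600 l/ha. Activity rated visually after about 3 weeks against untreated controls (100% = plants dead, 0% = like control).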

Amaranthus retroflexus = assay: Post-emergence herbicidal activity against AMARE; details: dosage 320 g/ha, rated about 3 weeks after treatment; for pest or weed control at 320 g/ha: Amaranthus retroflexus, 504 h
How it was run: as §2

Veronica persica = assay: Post-emergence herbicidal activity against VERPE; details: dosage 320 g/ha; for pest or weed control at 320 g/ha: Veronica persica, 504 h
How it was run: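 Greenhouse plants treated at one-leaf stage, 2–3 weeks after sowing, by spraying WP or EC formulations with 0.5% additive at 600 l/ha water. Visual rating about 3 weeks later versus untreated controls (100% = plants dead, 0% = like controls).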

Hordeum murinum = assay: Post-emergence herbicidal activity against HORMU; details: dosage 320 g/ha; for pest or weed control at 320 g/ha: Hordeum murinum, 504 h
How it was run: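 Greenhouse pot plants sprayed post-emergence at one-leaf stage (2-3 weeks after sowing) with WP or EC formulations, 0.5% additive, 600 l/ha water. Visual rating about 3 weeks later versus untreated controls: 100% = plants dead, 0% = like control.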

Avena fatua [4] = assay: Pre-emergence herbicidal activity against AVEFA; details: dosage 80 g/ha; for pest or weed control at 80 g/ha: Avena fatua, 504 h, read-out: Pre-emergence herbicidal activity against AVEVA in % (AVEFA)
Source text: as §1, with “AMARE: Amaranthus retroflexus AVEFA: Avena fatua” for “ABUTH: Abutilon theophrasti ALOMY: Alopecurus myosuroides”

Row | SMILES | pest or weed control at 80 g/ha (Alopecurus myosuroides [1]) | pest or weed control at 80 g/ha (Setaria viridis) | pest or weed control at 80 g/ha (Polygonum convolvulus) | pest or weed control at 320 g/ha (Alopecurus myosuroides [2]) | pest or weed control at 320 g/ha (Avena fatua [3]) | pest or weed control at 320 g/ha (Amaranthus retroflexus) | pest or weed control at 320 g/ha (Veronica persica) | pest or weed control at 320 g/ha (Hordeum murinum) | pest or weed control at 80 g/ha (Avena fatua [4]) | Post-emergence herbicidal activity against ALOMY in % (Alopecurus myosuroides [2]) | Post-emergence herbicidal activity against AVEFA in % (Avena fatua [3]) | Post-emergence herbicidal activity against AMARE in % (Amaranthus retroflexus) | Post-emergence herbicidal activity against HORMU in % (Hordeum murinum) | Pre-emergence herbicidal activity against ALOMY in % (Alopecurus myosuroides [1]) | Pre-emergence herbicidal activity against AVEVA in % (AVEFA) (Avena fatua [4]) | Pre-emergence herbicidal activity against SETVI in % (Setaria viridis) | Pre-emergence herbicidal activity against POLCO in % (Polygonum convolvulus) | Post-emergence herbicidal activity against VERPE in % (Veronica persica)
1 | CC(C)(C)OC(=O)[C@H]1C[C@@H](NC(=O)C2(C)CC(c3cccc(F)c3)=NO2)CO1 (mixture of isomers) [I-33, tert-butyl cis-4-[[(5RS)-3-(3-fluorophenyl)-5-methyl-4H-isoxazole-5-carbonyl]amino]tetrahydrofuran-2-carboxylate] | 100% | 100% | 90% | 100% | 100% | 90% | 80% | 90% |  |  |  |  |  |  |  |  |  | 
2 | C=CC1(C(=O)NC2=C(C(=O)OCC)COC2)CC(c2cc(F)cc(F)c2)=NO1 (centres unmarked) [I-23, ethyl 4-[[3-(3,5-difluorophenyl)-5-vinyl-4H-isoxazole-5-carbonyl]amino]-2,5-dihydrofuran-3-carboxylate] | 90% |  |  | 100% | 100% | 80% |  | 100% | 90% |  |  |  |  |  |  |  |  | 
3 | COC(=O)[C@H]1C[C@@H](NC(=O)C2(OC)CC(c3cc(F)cc(F)c3)=NO2)CO1 (relative stereo) [I-05, methyl cis-4-[[3-(3,5-difluorophenyl)-5-methoxy-4H-isoxazole-5-carbonyl]amino]tetrahydrofuran-2-carboxylate] |  | 90% | 80% | 90% | 100% |  | 80% |  |  |  |  |  |  |  |  |  |  | 
4 | C=C[C@]1(C(=O)N[C@H]2CO[C@@H](C(=O)OC)C2)CC(c2cc(F)cc(F)c2)=NO1 (single isomer, unassigned) [I-12] | 100% | 100% | 100% |  |  |  |  |  | 100% | 90% | 100% | 90% | 90% |  |  |  |  | 
5 | COC(=O)[C@H]1C[C@@H](NC(=O)[C@@]2(C)CC(c3cc(F)cc(F)c3)=NO2)CO1 (mixture of isomers) [I-09, methyl cis-4-[[(5R)-3-(3,5-difluorophenyl)-5-methyl-4H-isoxazole-5-carbonyl]amino]tetrahydrofuran-2-carboxylate] | 100% | 80% | 100% | 90% | 90% |  | 80% |  | 90% |  |  |  |  |  |  |  |  | 
6 | C=C[C@]1(C(=O)N[C@H]2CO[C@@H](C(=O)OC)C2)CC(c2cc(F)cc(F)c2)=NO1 (single isomer, unassigned) [I-11] |  |  |  | 90% | 100% | 90% |  | 100% |  |  |  |  |  | 100% | 100% | 100% | 100% | 
7 | CCOC(=O)[C@H]1C[C@@H](NC(=O)C2(C)CC(c3cccc(F)c3)=NO2)CO1 (mixture of isomers) [I-30, ethyl cis-4-[[(5RS)-3-(3-fluorophenyl)-5-methyl-4H-isoxazole-5-carbonyl]amino]tetrahydrofuran-2-carboxylate] | 100% | 100% | 90% | 100% | 100% |  | 80% | 100% | 80% |  |  |  |  |  |  |  |  | 
8 | C=C[C@]1(C(=O)NC2COCC2C(=O)OC)CC(c2cc(F)cc(F)c2)=NO1 (stereo partly drawn) [I-26, methyl 4-[[(5S)-3-(3,5-difluorophenyl)-5-vinyl-4H-isoxazole-5-carbonyl]amino]tetrahydrofuran-3-carboxylate] | 100% | 100% |  | 90% | 90% | 80% | 90% |  | 90% |  |  |  |  |  |  |  |  | 
9 | CC(C)OC(=O)[C@H]1C[C@@H](NC(=O)C2(C)CC(c3cccc(F)c3)=NO2)CO1 (mixture of isomers) [I-32, isopropyl cis-4-[[(5RS)-3-(3-fluorophenyl)-5-methyl-4H-isoxazole-5-carbonyl]amino]tetrahydrofuran-2-carboxylate] | 100% | 100% | 90% | 90% | 100% | 80% | 80% | 90% |  |  |  |  |  |  |  |  |  | 
10 | COC(=O)C1CC(NC(=O)C2(C(C)(F)F)CC(c3cc(F)cc(F)c3)=NO2)CO1 (centres unmarked) [I-49] |  |  |  |  |  |  |  |  |  | 90% | 80% |  |  | 100% | 100% | 100% | 100% | 80%
11 | C=CC1(C(=O)N[C@H]2CO[C@@H](C(=O)O)C2)CC(c2cc(F)cc(F)c2)=NO1 (relative stereo) [I-21, cis-4-[[3-(3,5-difluorophenyl)-5-vinyl-4H-isoxazole-5-carbonyl]amino]tetrahydrofuran-2-carboxylic acid] | 100% | 90% | 90% | 90% | 90% | 100% | 100% |  | 90% |  |  |  |  |  |  |  |  | 
12 | C=C[C@]1(C(=O)N[C@H]2CO[C@@H](C(=O)OCc3ccccc3)C2)CC(c2cc(F)cc(F)c2)=NO1 (mixture of isomers) [I-37, benzyl cis-4-[[(5S)-3-(3,5-difluorophenyl)-5-vinyl-4H-isoxazole-5-carbonyl]amino]tetrahydrofuran-2-carboxylate] | 100% | 100% | 100% |  | 100% | 80% | 80% | 80% | 100% |  |  |  |  |  |  |  |  | 
13 | COC(=O)C1COCC1NC(=O)C1(C)CC(c2cc(F)cc(F)c2)=NO1 (centres unmarked) [I-19, methyl 4-[[3-(3,5-difluorophenyl)-5-methyl-4H-isoxazole-5-carbonyl]amino]tetrahydrofuran-3-carboxylate] | 90% |  | 90% | 90% | 100% | 90% | 80% |  | 80% |  |  |  |  |  |  |  |  | 
